Laboratory results from patent US7291627B2, “Dihydroimidazo[5.1-a]-beta-carboline derivatives, method for their preparation, and their application as a drug” (MACEF, priority 2001, dated 2007).

Tested on: JA 657 chicks
Assay: Chick sleep/sedation test (IM injection, 90 minute observation)
Type: in vivo
Details: for Sed (sedation time as % of the period) / TA (time to torpor between injection and first stage of sleep) / TS (duration of the first sleep) / Tsed (total sedation time over the period): 90 min observation; for TS (mins) Placebo diff'ce: extension of first sleep compared with test controls
Experimental: The dihydroimidazo[5,1-a]-β-carboline derivatives of the invention, in particular those in the form of the methyl sulfonate, (soluble), were tested in chicks, and certain compounds that were active in the chick were administered in single doses to six Beagle dogs of both sexes for a polysomnographic study of at least 4 hours duration.
JA 657 chicks from Couvoir Gauguet, 44 Le Pin, were accustomed for at least 6 days to an alternating program of light and darkness with 12 hours of daylight and 12 hours of darkness at a regulated temperature of 25±2° C. They were fed ad libitum and were placed under test compounds in a vivarium in groups of 3 individuals with a mean weight of 100±10 g on the day of the test. At that age in this species, there is no effective meningeal (hemato-encephalic) barrier. The test products were injected in 3 doses (1, 3 and 10 mg/kg) intramuscularly (IM) in solution or in an aqueous suspension (1 drop of Tween 80 per ml), each to two batches of 3 chicks which were observed over 90 minutes. For each test series (18 vivaria), there was at least one batch of negative control chicks receiving the same volume (0.2 ml IM) of water for injectable preparations.
During the 90 minute observation period, the chicks were strongly stimulated every 15 minutes by presenting a full feeding trough, and each 5 minute period was given a grade from among the following 5 states, corresponding to the state of alertness over that period:
Mobile, sitting alert, drowsy, asleep, sleep-like state. The parameters studied were the time to torpor (TA) passed between injection and the first stage of sleep, the duration of the first sleep (TS) and the total sedation time over the period (Tsed), expressed in minutes and as a % of the period (Sed).
To compare the results of tests carried out at different dates, the extension of the duration of the first sleep TS compared with the test controls was recorded.

Compound	Sed (sedation time as % of the period) (Dose: 1 mg/kg)	TA (time to torpor between injection and first stage of sleep) (Dose: 1 mg/kg)	TS (duration of the first sleep) (Dose: 1 mg/kg)	Tsed (total sedation time over the period) (Dose: 1 mg/kg)	TS (mins) Placebo diff'ce (Dose: 1 mg/kg)	Sed (sedation time as % of the period) (Dose: 3 mg/kg)	TA (time to torpor between injection and first stage of sleep) (Dose: 3 mg/kg)	TS (duration of the first sleep) (Dose: 3 mg/kg)	Tsed (total sedation time over the period) (Dose: 3 mg/kg)	TS (mins) Placebo diff'ce (Dose: 3 mg/kg)	Sed (sedation time as % of the period) (Dose: 10 mg/kg)	TA (time to torpor between injection and first stage of sleep) (Dose: 10 mg/kg)	TS (duration of the first sleep) (Dose: 10 mg/kg)	Tsed (total sedation time over the period) (Dose: 10 mg/kg)	TS (mins) Placebo diff'ce (Dose: 10 mg/kg)
CS(=O)(=O)O.Cc1ccc2[nH]c3c(c2c1)CCn1c-3cnc1C [Example 18, 3,8-dimethyl-5,6-dihydroimidazo[5,1-a]-β-carboline methane sulfonate]	69.4%	5 min	32.5 min	62.5 min	24 min	63.9%	4.5 min	30.5 min	57.5 min	22.5 min	90.6%	7.5 min	76 min	81.5 min	68 min
CS(=O)(=O)O.Cc1ccc2c(c1)c1c(n2C)-c2cnc(C)n2CC1 [Example 19, 3,8,11-trimethyl-5,6-dihydroimidazo[5,1-a]-β-carboline methane sulfonate]	49.4%	4 min	17.5 min	44.5 min	11 min	62.8%	3.5 min	46.5 min	56.5 min	38.5 min	75.0%	3.5 min	60 min	67.5 min	52 min
CCn1c2c(c3cc(C)ccc31)CCn1c-2cnc1C.CS(=O)(=O)O [Example 20, 11-ethyl-3,8-dimethyl-5,6-dihydroimidazo-[5,1-a]-β-carboline methane sulfonate]	80%	2 min	65.5 min	72 min	57 min	79.4%	1.5 min	51.5 min	71.5 min	43.5 min	97.2%	1.5 min	87.5 min	87.5 min	81.5 min
